Measured values published in US9360486B2, “Allergen fragments” (Biomay AG, priority 2007, dated 2016).

System: Amb a 1-specific T cell lines (TCL)
Experiment: T cell epitope mapping of Amb a 1.3: proliferation (3H-thymidine uptake) of TCL stimulated with synthetic peptides
Type: cell-based, human
Details: for T cell activating region recognized by % of patients: classes of prevalence referring to SI>5, 48 TCL; for No. positive patients SI > 3 / No. positive patients SI > 5 / % (positive patients SI > 3) / % (positive patients SI > 5): TCL from 48 ragweed pollen-allergic patients, peptide 5 μg/ml; for No. positive patients SI > 3 / No. positive patients SI > 5: 3H-thymidine uptake after 48 hrs; for No. positive patients SI > 3 / % (positive patients SI > 3): stimulation index > 3; for No. positive patients SI > 5 / % (positive patients SI > 5): stimulation index > 5
Excerpt: The T cell response to Amb a 1 was characterized in detail using the established in vitro culture system (Jahn-Schmid et al., J. Immunol. 169: 6005-11, 2002; Jahn-Schmid et al., J. Allergy Clin. Immunol., 115: 399-404, 2005). In total, 85 clinically well-defined patients (75 from Vienna/10 from Milano) with typical case history, positive skin prick test and CAP/RAST tests for ragweed extract were included.
Peripheral blood mononuclear cells (PBMC) were isolated from heparinized blood of allergic patients by Ficoll density gradient centrifugation. To generate allergen-specific T cell lines (TCL) and T cell clones (TCC), 1.5×10^6 PBMC were stimulated with optimal doses of ragweed or mugwort extract (4 μg/ml) or rAmb a 1.3 (10 μg/ml) in 24-well flat-bottomed culture plates (Costar, USA). After 5 days human rIL-2 (10 U/ml, Boehringer, Mannheim, Germany) were added and cultures were continued for additional 7 days. Then, T cell blasts were isolated by density centrifugation. The majority of T cell blasts was further expanded with IL-2 and irradiated PBMC. A small number of T cell blasts were used to establish monoclonal T cell cultures by limiting dilution: 0.3 T cells/well were seeded into 96 well round bottom plates (Nunclone) in the presence of 2×10^5 irradiated (60 Gy) PBMC, 0.25% v/v PHA (Gibco, USA) and rIL-2 (4 U/well) in the medium mentioned above. After 14-21 days, growing microcultures were expanded at weekly intervals with irradiated PBMC and rIL-2. The specificity of TCC was assessed in proliferation assays using irradiated allogeneic or HLA-matched PBMC or irradiated EBV-transformed allogeneic B-cells and 5 μg/ml Amb a 1.3. After 48 hours, cellular uptake of tritiated (^3H)-thymidine was performed to measure proliferation in counts per minute (cpm). When the stimulation index (SI; ratio between cpm obtained in cultures containing TCC plus autologous APC plus antigen, and cpm obtained in cultures containing TCC and APC alone) was >10, responses were considered as positive. Allergen-specific TCC were expanded by alternating turns of stimulation with autologous irradiated APC and allergen or with allogeneic feeder cells and rIL-2.
Amb a 1-specific TCL and TCC were used to identify T cell epitopes of Amb a 1.3. T cell cultures were stimulated with a panel of 121 synthetic 12-mer peptides and one 13-mer representing the C-terminal peptide of Amb a 1.3 (Pepset, Biotrend, Germany). Peptides had been synthesized according to the Amb a 1.3 amino acid sequence and overlapped for 9 amino acid residues with the neighbouring peptides (Table 1). Peptides were used at a concentration of 5 μg/ml for stimulation and proliferation of T cell cultures was determined after 48 hrs by ^3H-thymidine-uptake. Because of the frequently observed high background caused by auto-reactivity in TCL, the mean of the cpm observed with the ten least stimulating peptides (none of the peptides was toxic) was used as negative control in calculations of SI. Throughout this manuscript, a peptide comprised one T cell epitope when the stimulation index was at least 3.0.
T cell epitope mapping of Amb a 1.3 was performed evaluating 48 TCL from different patients ([…]), which had been initiated with ragweed extract (containing the natural allergen) or rAmb a 1.3 (Table 2). TCL induced with either ragweed extract or rAmb a 1.3 from the same individual recognized similar T cell epitopes (Table 2; FIG. 7). […] Therefore, their data were combined for further analysis (Table 3). Typical for many inhalant allergens, multiple T cell activating regions were detected in Amb a 1.3. The number of peptides recognized by T cells from a single individual ranged from 2 to maximum 60 peptides with a mean of 17.8 peptides (median=16/for SI>3; resp. 0-36/11.9/12 for SI>5) (see Table 3). In total, 26 relevant (i.e. recognized by ≧10% of patients studied) T cell activating regions comprising 12-18 aa were identified. […]

Row | Sequence | reactivity with T cells isolated from allergic individuals | T cell activating region recognized by % of patients | No. positive patients SI > 3 | No. positive patients SI > 5 | % (positive patients SI > 3) | % (positive patients SI > 5) | T cell reactivity with samples from individuals suffering from ragweed pollen allergy
1 | GEAAIKLTSSAGVLSCRP (Amb a 1 fragment) [Peptide 118-120] | reactivity with T cells | recognized by 20.8% | – | – | – | – | –
2 | GKWGDVYTVTSN (Amb a 1 fragment) [Peptide 20] | reactivity with T cells | recognized by 14.6% | 9 | 7 | 18.8% | 14.6% | –
3 | GMIKSNDGPPIL (Amb a 1 fragment) [Peptide 52] | reactivity with T cells | recognized by 56.3% | 31 | 27 | 64.6% | 56.3% | high T cell reactivity
4 | GNRFLAPDDQIK (Amb a 1 fragment) [Peptide 96] | reactivity with T cells | – | 5 | 4 | 10.4% | 8.3% | –
5 | GRGVKVEIINGG (Amb a 1 fragment) [Peptide 40] | – | – | 3 | 4 | 6.3% | 8.3% | –
6 | GSSQIWIDHCSL (Amb a 1 fragment) [Peptide 60] | reactivity with T cells | – | 30 | 28 | 62.5% | 58.3% | –
7 | GSSQIWIDHCSLSKS (Amb a 1 fragment) [Peptide 60-61] | reactivity with T cells | – | – | – | – | – | –
8 | GSTHVTISNCKF (Amb a 1 fragment) [Peptide 68] | reactivity with T cells | recognized by 33.3% | 20 | 16 | 41.7% | 33.3% | high T cell reactivity
9 | GVGEILPSVNET (Amb a 1 fragment) [Peptide 2] | – | – | 2 | 1 | 4.2% | 2.1% | –
10 | HVTISNCKFTQQ (Amb a 1 fragment) [Peptide 69] | reactivity with T cells | – | 8 | 4 | 16.7% | 8.3% | –
11 | IDHCSLSKSFDG (Amb a 1 fragment) [Peptide 62] | – | – | 3 | 2 | 6.3% | 4.2% | –
12 | IFVTSGSDPVLT (Amb a 1 fragment) [Peptide 110] | reactivity with T cells | – | 13 | 11 | 27.1% | 22.9% | –
13 | IGGSSAPTILCQ (Amb a 1 fragment) [Peptide 92] | – | – | 3 | 2 | 6.3% | 4.2% | –
14 | IHDVKVLPGGMI (Amb a 1 fragment) [Peptide 49] | – | – | 3 | 2 | 6.3% | 4.2% | –
15 | IIFKNDMVINLN (Amb a 1 fragment) [Peptide 32] | – | – | 2 | 1 | 4.2% | 2.1% | –
16 | IIHNINIHDVKV (Amb a 1 fragment) [Peptide 47] | reactivity with T cells | – | 14 | 10 | 29.2% | 20.8% | –
17 | ILLGADDTHVQD (Amb a 1 fragment) [Peptide 74] | – | – | 3 | 1 | 6.3% | 2.1% | –
18 | ISNCKFTQQSKA (Amb a 1 fragment) [Peptide 70] | – | – | 1 | 1 | 2.1% | 2.1% | –
19 | KADWENNRQALA (Amb a 1 fragment) [Peptide 12] | reactivity with T cells | – | 5 | 1 | 10.4% | 2.1% | –
20 | KGMLATVAFNMF (Amb a 1 fragment) [Peptide 78] | reactivity with T cells | recognized by 12.5% | 11 | 6 | 22.9% | 12.5% | –
21 | KNDMVINLNQEL (Amb a 1 fragment) [Peptide 33] | reactivity with T cells | – | 15 | 13 | 31.3% | 27.1% | –
22 | KNDMVINLNQELVVN (Amb a 1 fragment) [Peptide 33-34] | reactivity with T cells | recognized by 27.1% | – | – | – | – | –
23 | KNIIIHNINIHD (Amb a 1 fragment) [Peptide 46] | reactivity with T cells | – | 10 | 8 | 20.8% | 16.7% | –
24 | KNIIIHNINIHDVKVLPG (Amb a 1 fragment) [Peptide 46-48] | reactivity with T cells | recognized by 20.8% | – | – | – | – | –
25 | KNVLARTGTGAA (Amb a 1 fragment) [Peptide 100] | reactivity with T cells | recognized by 10.4% | 6 | 5 | 12.5% | 10.4% | –
26 | KSNDGPPILRQA (Amb a 1 fragment) [Peptide 53] | reactivity with T cells | – | 5 | 0 | 10.4% | 0.0% | –
27 | LARTGTGAAESM (Amb a 1 fragment) [Peptide 101] | reactivity with T cells | – | 10 | 7 | 20.8% | 14.6% | –
28 | LARTGTGAAESMAWN (Amb a 1 fragment) [101/102] | reactivity with T cells | recognized by 14.6% | – | – | – | – | –
